Reference: paper doi:10.1101/2025.08.20.670845v1 (biorxiv, 2025)

Tests used:
Assay in all cases: G-Flamp2 cAMP biosensor fluorescence in HeLa cells expressing the receptor
Assay type in all cases: cell-based
AgOctβ2R (AgOctβ2) [1] = biological target: T1, AgOctβ2R (AgOctβ2) (Anopheles gambiae, UniProt F5HKI1, N432C)
T1 sequence (F5HKI1 1-526 N432C): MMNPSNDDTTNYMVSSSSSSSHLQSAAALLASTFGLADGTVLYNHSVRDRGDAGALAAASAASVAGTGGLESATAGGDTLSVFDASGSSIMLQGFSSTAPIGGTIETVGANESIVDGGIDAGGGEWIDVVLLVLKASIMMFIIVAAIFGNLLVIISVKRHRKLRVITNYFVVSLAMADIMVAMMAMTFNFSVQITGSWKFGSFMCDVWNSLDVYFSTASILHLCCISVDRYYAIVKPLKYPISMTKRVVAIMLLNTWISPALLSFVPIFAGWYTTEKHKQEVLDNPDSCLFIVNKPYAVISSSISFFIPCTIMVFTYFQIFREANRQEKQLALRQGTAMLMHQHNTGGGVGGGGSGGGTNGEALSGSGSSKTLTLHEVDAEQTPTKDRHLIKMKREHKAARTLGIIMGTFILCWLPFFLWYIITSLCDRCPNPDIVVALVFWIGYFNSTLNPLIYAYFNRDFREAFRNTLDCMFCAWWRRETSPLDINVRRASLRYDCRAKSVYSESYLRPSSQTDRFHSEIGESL

VdOctβ2 = biological target: T2, VdOctβ2 (Varroa destructor, UniProt A0A7M7KEY3)
T2 sequence (A0A7M7KEY3 1-439): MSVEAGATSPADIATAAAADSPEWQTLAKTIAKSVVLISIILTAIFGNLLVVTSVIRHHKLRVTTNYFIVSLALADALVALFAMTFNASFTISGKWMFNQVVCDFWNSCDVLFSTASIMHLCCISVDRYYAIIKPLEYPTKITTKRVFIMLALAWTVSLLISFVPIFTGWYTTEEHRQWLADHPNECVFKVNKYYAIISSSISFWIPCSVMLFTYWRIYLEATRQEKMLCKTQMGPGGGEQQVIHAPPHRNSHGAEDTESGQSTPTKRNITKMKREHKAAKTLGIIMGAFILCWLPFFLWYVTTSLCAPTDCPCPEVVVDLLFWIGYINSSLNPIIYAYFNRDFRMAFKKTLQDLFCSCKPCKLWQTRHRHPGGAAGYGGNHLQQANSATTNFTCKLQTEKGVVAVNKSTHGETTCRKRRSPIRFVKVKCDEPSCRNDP

AgOctβ2R (AgOctβ2) [2] = biological target: T3, AgOctβ2R (AgOctβ2) (Anopheles gambiae, UniProt F5HKI1, L290E)
T3 sequence (F5HKI1 1-526 L290E): T1 sequence (F5HKI1 1-526 N432C)

AmOctβ2 = biological target: T4, AmOctβ2 (Apis mellifera, UniProt A0A7M7GMY8)
T4 sequence (A0A7M7GMY8 1-438): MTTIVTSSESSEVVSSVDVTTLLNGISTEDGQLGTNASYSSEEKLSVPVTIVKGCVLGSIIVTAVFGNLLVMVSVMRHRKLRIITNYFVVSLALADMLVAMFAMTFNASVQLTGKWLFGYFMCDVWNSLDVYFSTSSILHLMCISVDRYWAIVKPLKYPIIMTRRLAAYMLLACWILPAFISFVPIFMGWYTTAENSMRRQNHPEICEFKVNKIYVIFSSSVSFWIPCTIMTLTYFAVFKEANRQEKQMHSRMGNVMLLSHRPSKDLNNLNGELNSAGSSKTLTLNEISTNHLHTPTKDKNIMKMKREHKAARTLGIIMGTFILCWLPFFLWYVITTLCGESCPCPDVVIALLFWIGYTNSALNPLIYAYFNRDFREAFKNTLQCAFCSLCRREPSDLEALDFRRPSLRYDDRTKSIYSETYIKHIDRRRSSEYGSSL

AgOctβ2R (AgOctβ2) [3] = biological target: T5, AgOctβ2R (AgOctβ2) (Anopheles gambiae, UniProt F5HKI1)
T5 sequence (F5HKI1 1-526): T1 sequence (F5HKI1 1-526 N432C)

Compound Cc1ccc(/N=C/N(C)/C=N/c2ccc(C)cc2C)c(C)c1 [amitraz] has an EC50 (AgOctβ2R (AgOctβ2) [1]) of 118 nM, an EC50 (VdOctβ2) of 1.9 nM and an EC50 (AgOctβ2R (AgOctβ2) [2]) of 85.4 nM. For the same compound, the EC50 (AmOctβ2) was 12.1 nM and the EC50 (AgOctβ2R (AgOctβ2) [3]) was 10.8 nM.
With NCC(O)c1ccc(O)cc1 (stereo not drawn) [octopamine] the EC50 (AgOctβ2R (AgOctβ2) [1]) was 57.3 nM, the EC50 (VdOctβ2) was 47.1 nM and the EC50 (AmOctβ2) was 45.6 nM. It also gave an EC50 (AgOctβ2R (AgOctβ2) [3]) of 14.7 nM.
